# From patent US6737383B1, “Herbicidal oxadiazolidines” (priority 1999, dated 2004)
# How the values were obtained:
# [1] = tested on: galium; assay: Test E galium; format: in vivo, Galium aparine; conditions: Preemergence
# [2] = tested on: chickweed; assay: Test E chickweed; format: in vivo, Stellaria media; conditions: Postemergence
# Method: (§1) Compounds evaluated in this test were formulated in a non-phytotoxic solvent mixture which included a surfactant and applied to plants that were in the 1- to 4-leaf stage (postemergence application). A mixture of sandy loam soil and greenhouse potting mix in a 60:40 ratio was used for the postemergence test.
# (§2) Plantings of these crops and weed species were adjusted to produce plants of appropriate size for the postemergence test. All plant species were grown using normal greenhouse practices. Crop and weed species include annual bluegrass (Poa annua), blackgrass (Alopecurus myosuroides), black nightshade (Solanum nigra), chickweed (Stellaria media), common poppy (Papaver rhoeas), deadnettle (Lamium amplexicaule), downy brome (Bromus tectorum), field violet (Viola arvensis), galium (Galium aparine), green foxtail (Setaria viridis), Italian ryegrass (Lolium multiflorum), jointed goatgrass (Aegilops cylindrica), kochia (Kochia scoparia), lambsquarters (Chenopodium album), littleseed canarygrass (Phalaris minor), rape (Brassica napus), redroot pigweed (Amaranthus retroflexus), Russian thistle (Salsola kali), scentless chamomile (Matricaria inodora), spring barley (Hordeum vulgare), sugar beet (Beta vulgaris), sunflower (Helianthus annuus), ivyleaf speedwell (Veronica hederaefolia), spring wheat (Triticum aestivum), winter wheat (Triticum aestivum), wild buckwheat (Polygonum convolvulus), wild mustard (Sinapis arvensis), wild oat (Avena fatua), windgrass (Apera spica-venti) and winter barley (Hordeum vulgare).
# (§3) Treated plants and untreated controls were maintained in a greenhouse for approximately 21 to 28 days, after which all treated plants were compared to untreated controls and visually evaluated. […] A dash response (-) means no test result.
# [3] = tested on: wild buckwheat; assay: Test E wild buckwheat; format: in vivo, Polygonum convolvulus; conditions: Preemergence
# [4] = tested on: Russian thistle; assay: Test E Russian thistle; format: in vivo, Salsola kali; conditions: Postemergence
# Method: […] A mixture of sandy loam soil and greenhouse potting mix in a 60:40 ratio was used for the postemergence test.
# as §2, §3
# [5] = tested on: downy brome; assay: Test E downy brome; format: in vivo, Bromus tectorum; conditions: Postemergence; for Plant response rating, Downy brome: 0 to 100 scale
# How it was run: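 Visually scored herbicidal effect relative to untreated plants, taken ~21 to 28 days post-application; compound in solvent with surfactant; postemergence sprays at the 1- to 4-leaf stage.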
# [6] = tested on: wild oat; assay: Test E wild oat; format: in vivo, Avena fatua; conditions: Postemergence
# Method: as §1, §2, §3
# [7] = tested on: blackgrass; assay: Test E blackgrass; format: in vivo, Alopecurus myosuroides; conditions: Postemergence
# Method: as §1, §2, §3
# [8] = tested on: scentless chamomile; assay: Test E scentless chamomile; format: in vivo, Matricaria inodora; conditions: Postemergence
# Method: as §1, §2, §3
# [9] = tested on: deadnettle; assay: Test E deadnettle; format: in vivo, Lamium amplexicaule; conditions: Postemergence
# Method: as §1, §2, §3
# [10] = tested on: giant foxtail; assay: Test C postemergence giant foxtail; format: in vivo, Setaria faberii; conditions: 0 to 100 scale, 0 no effect, 100 complete control
# How it was run: (§4)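 Compounds in a non-phytotoxic solvent mixture with surfactant were sprayed postemergence on greenhouse-grown plants sized for treatment, in 60:40 sandy loam soil:potting mix. After about 14 to 21 days, injury was rated visually against untreated controls on a 0–100 scale (0 no effect, 100 complete control).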
# [11] = tested on: large crabgrass; assay: Test C postemergence large crabgrass; format: in vivo, Digitaria sanguinalis; conditions: 0 to 100 scale, 0 no effect, 100 complete control
# How it was run: as §4
# [12] = tested on: field bindweed; assay: Test C postemergence field bindweed; format: in vivo, Convolvulus arvensis; conditions: 0 to 100 scale, 0 no effect, 100 complete control
# How it was run: as §4
# [13] = tested on: wild poinsettia; assay: Test C postemergence wild poinsettia; format: in vivo, Euphorbia heterophylla; conditions: 0 to 100 scale, 0 no effect, 100 complete control
# How it was run: as §4
# [14] = tested on: cotton; assay: Test C postemergence cotton; format: in vivo, Gossypium hirsutum; conditions: 0 to 100 scale, 0 no effect, 100 complete control
# How it was run: as §4
# [15] = tested on: velvetleaf; assay: Test C postemergence velvetleaf; format: in vivo, Abutilon theophrasti; conditions: 0 to 100 scale, 0 no effect, 100 complete control
# Method: Compounds evaluated in this test were formulated in a non-phytotoxic solvent mixture which included a surfactant and applied to plants that were grown for various periods of time before treatment (postemergence application). A mixture of sandy loam soil and greenhouse potting mix in a 60:40 ratio was used for the postemergence test.
# Plantings of these crops and weed species were adjusted to produce plants of appropriate size for the postemergence test. All plant species were grown using normal greenhouse practices. Crop and weed species include arrowleaf sida (Sida rhombifolia), barnyardgrass (Echinochloa crus-galli), cocklebur (Xanthium strumarium), common ragweed (Ambrosia elatior), corn (Zea mays), cotton (Gossypium hirsutum), eastern black nightshade (Solanum ptycanthum), fall panicum (Panicum dichotomiflorum), field bindweed (Convolvulus arvensis), giant foxtail (Setaria faberii), hairy beggarticks (Bidens pilosa), ivyleaf morningglory (Ipomoea hederacea), johnsongrass (Sorghum halepense), ladysthumb smartweed (Polygonum persicaria), lambsquarters (Chenopodium album), large crabgrass (Digitaria sanguinalis), purple nutsedge (Cyperus rotundus), redroot pigweed (Amaranthus retroflexus), soybean (Glycine max), surinam grass (Brachiaria decumbens), velvetleaf (Abutilon theophrasti) and wild poinsettia (Euphorbia heterophylla).
# Treated plants and untreated controls were maintained in a greenhouse for approximately 14, to 21 days, after which all treated plants were compared to untreated controls and visually evaluated. Plant response ratings, summarized in Table C, were based upon a 0 to 100 scale where 0 was no effect and 100 was complete control. A dash response (−) means no test result.
# [16] = tested on: johnsongrass; assay: Test C postemergence johnsongrass; format: in vivo, Sorghum halepense; conditions: 0 to 100 scale, 0 no effect, 100 complete control
# How it was run: as §4
# [17] = Rate 125 g/ha, 0 to 100 scale (0 no effect, 100 complete control)
# [18] = Rate 500 g/ha, 0 to 100 scale where 0 is no effect and 100 is complete control
# [19] = Rate 250 g/ha, 0 to 100 scale (0 no effect, 100 complete control)
# [20] = Rate 500 g/ha, 0 to 100 scale, 0 no effect, 100 complete control
# [21] = Rate 500 g/ha, 0 no effect, 100 complete control
# [22] = Rate 250 g/ha, 0 to 100 scale where 0 is no effect and 100 is complete control
smiles,measurement,setting,value
CC(C)N(C(=O)n1oc(=O)n(C(C)C)c1=O)c1ccc(Cl)cc1 [Compound 114],"Plant response rating, Galium",[1]; [17],100
same,"Plant response rating, Galium","[1]; Rate 250 g/ha, 0 to 100 scale",60
same,"Plant response rating, Galium",[1]; [18],70
same,"Plant response rating, Chickweed","[2]; Rate 125 g/ha, 0 to 100 scale",10
same,"Plant response rating, Chickweed",[2]; [19],0
same,"Plant response rating, Chickweed",[2]; [20],10
same,"Plant response rating, Wild buckwheat",[3]; [17],20
same,"Plant response rating, Wild buckwheat","[3]; Rate 250 g/ha, 0 to 100 scale",50
same,"Plant response rating, Wild buckwheat",[3]; [18],80
same,"Plant response rating, Russian thistle","[4]; Rate 125 g/ha, 0 to 100 scale",0
same,"Plant response rating, Russian thistle",[4]; [19],0
same,"Plant response rating, Russian thistle",[4]; [20],0
same,"Plant response rating, Downy brome",[5]; Rate 125 g/ha,0
same,"Plant response rating, Downy brortie",[5]; [19],0
same,"Plant response rating, Downy brome",[5]; [21],30
same,"Plant response rating, Wild oat","[6]; Rate 125 g/ha, 0 to 100 scale",0
same,"Plant response rating, Wild oat",[6]; [19],0
same,"Plant response rating, Wild oat",[6]; [20],0
same,"Plant response rating, Blackgrass","[7]; Rate 125 g/ha, 0 to 100 scale",0
same,"Plant response rating, Blackgrass",[7]; [19],20
same,"Plant response rating, Blackgrass",[7]; [20],65
same,"Plant response rating, Scentless chamo","[8]; Rate 125 g/ha, 0 to 100 scale",0
same,"Plant response rating, Scentless chamo",[8]; [19],0
same,"Plant response rating, Scentless chamo",[8]; [20],0
same,"Plant response rating, Deadnettle","[9]; Rate 125 g/ha, 0 to 100 scale",20
same,"Plant response rating, Deadnettle",[9]; [19],10
same,"Plant response rating, Deadnettle",[9]; [20],70
CC(C)N(C(=O)n1oc(=O)n(C(C)C)c1=O)c1ccc(F)cc1 [Compound 131],"Plant response rating, Giant foxtail",[10]; Rate 140 g/ha,10
same,"Plant response rating, Giant foxtail",[10]; Rate 280 g/ha,40
same,"Plant response rating, Giant foxtail",[10]; Rate 560 g/ha,60
same,"Plant response rating, Giant foxtail",[10]; Rate 1120 g/ha,80
same,"Plant response rating, Galium",[1]; [17],60
same,Galium plant response rating (0 to 100 scale),[1]; Rate 250 g/ha,50
same,"Plant response rating, Galium",[1]; [18],100
same,"Plant response rating, Chickweed","[2]; Rate 62 g/ha, 0 to 100 scale",60
same,"Plant response rating, Chickweed","[2]; Rate 125 g/ha, 0 to 100 scale",10
same,"Plant response rating, Chickweed",[2]; [20],50
same,Chickweed plant response rating,[2]; [22],20
same,"Plant response rating, Wild buckwheat",[3]; [17],30
same,Wild buckwheat plant response rating (0 to 100 scale),[3]; Rate 250 g/ha,70
same,"Plant response rating, Wild buckwheat",[3]; [18],100
same,Plant response rating Large crabgrass,[11]; Rate 140 g/ha,0
same,Plant response rating Large crabgrass,[11]; Rate 280 g/ha,20
same,Plant response rating Large crabgrass,[11]; Rate 560 g/ha,70
same,Plant response rating Large crabgrass,[11]; Rate 1120 g/ha,85
same,"Plant response rating, Russian thistle","[4]; Rate 62 g/ha, 0 to 100 scale",10
same,"Plant response rating, Russian thistle","[4]; Rate 125 g/ha, 0 to 100 scale",0
same,"Plant response rating, Russian thistle",[4]; [20],0
same,Russian thistle plant response rating,[4]; [22],0
same,Plant response rating Field bindweed,[12]; Rate 140 g/ha,0
same,Plant response rating Field bindweed,[12]; Rate 280 g/ha,0
same,Plant response rating Field bindweed,[12]; Rate 560 g/ha,0
same,Plant response rating Field bindweed,[12]; Rate 1120 g/ha,60
same,"Plant response rating, Downy brome",[5]; Rate 62 g/ha,55
same,"Plant response rating, Downy brome",[5]; Rate 125 g/ha,0
same,"Plant response rating, Downy brome",[5]; [21],70
same,Downy brome plant response rating,[5]; [22],50
same,"Plant response rating, Wild oat","[6]; Rate 62 g/ha, 0 to 100 scale",40
same,"Plant response rating, Wild oat","[6]; Rate 125 g/ha, 0 to 100 scale",0
same,"Plant response rating, Wild oat",[6]; [20],70
same,Wild oat plant response rating,[6]; [22],20
same,Plant response rating Wild poinsettia,[13]; Rate 140 g/ha,0
same,Plant response rating Wild poinsettia,[13]; Rate 280 g/ha,10
same,Plant response rating Wild poinsettia,[13]; Rate 560 g/ha,30
same,Plant response rating Wild poinsettia,[13]; Rate 1120 g/ha,80
same,"Plant response rating, Blackgrass","[7]; Rate 62 g/ha, 0 to 100 scale",85
same,"Plant response rating, Blackgrass","[7]; Rate 125 g/ha, 0 to 100 scale",20
same,"Plant response rating, Blackgrass",[7]; [20],75
same,Blackgrass plant response rating,[7]; [22],60
same,Plant response rating Cotton,[14]; Rate 140 g/ha,10
same,Plant response rating Cotton,[14]; Rate 280 g/ha,10
same,Plant response rating Cotton,[14]; Rate 560 g/ha,40
same,Plant response rating Cotton,[14]; Rate 1120 g/ha,65
same,"Plant response rating, Velvetleaf",[15]; Rate 140 g/ha,0
same,"Plant response rating, Velvetleaf",[15]; Rate 280 g/ha,0
same,"Plant response rating, Velvetleaf",[15]; Rate 560 g/ha,10
same,"Plant response rating, Velvetleaf",[15]; Rate 1120 g/ha,70
same,"Plant response rating, Scentless chamo","[8]; Rate 62 g/ha, 0 to 100 scale",55
same,"Plant response rating, Scentless chamo","[8]; Rate 125 g/ha, 0 to 100 scale",0
same,"Plant response rating, Scentless chamo",[8]; [20],50
same,Scentless chamo plant response rating,[8]; [22],20
same,Plant response rating Johnsongrass,[16]; Rate 140 g/ha,15
same,Plant response rating Johnsongrass,[16]; Rate 280 g/ha,40
same,Plant response rating Johnsongrass,[16]; Rate 560 g/ha,60
same,Plant response rating Johnsongrass,[16]; Rate 1120 g/ha,70
same,"Plant response rating, Deadnettle","[9]; Rate 62 g/ha, 0 to 100 scale",30
same,"Plant response rating, Deadnettle","[9]; Rate 125 g/ha, 0 to 100 scale",30
same,"Plant response rating, Deadnettle",[9]; [20],50
same,Deadnettle plant response rating,[9]; [22],30
CCn1c(=O)on(C(=O)N(c2ccccc2)C(C)C)c1=O [Compound 117],"Plant response rating, Giant foxtail",[10]; Rate 140 g/ha,0
same,"Plant response rating, Giant foxtail",[10]; Rate 280 g/ha,60
same,"Plant response rating, Giant foxtail",[10]; Rate 560 g/ha,75
same,"Plant response rating, Giant foxtail",[10]; Rate 1120 g/ha,80
same,Plant response rating Large crabgrass,[11]; Rate 140 g/ha,0
same,Plant response rating Large crabgrass,[11]; Rate 280 g/ha,20
same,Plant response rating Large crabgrass,[11]; Rate 560 g/ha,60
same,Plant response rating Large crabgrass,[11]; Rate 1120 g/ha,80
same,Plant response rating Field bindweed,[12]; Rate 140 g/ha,0
same,Plant response rating Field bindweed,[12]; Rate 280 g/ha,30
same,Plant response rating Field bindweed,[12]; Rate 560 g/ha,30
same,Plant response rating Field bindweed,[12]; Rate 1120 g/ha,40
same,Plant response rating Wild poinsettia,[13]; Rate 140 g/ha,0
same,Plant response rating Wild poinsettia,[13]; Rate 280 g/ha,0
same,Plant response rating Wild poinsettia,[13]; Rate 560 g/ha,0
same,Plant response rating Wild poinsettia,[13]; Rate 1120 g/ha,0
same,Plant response rating Cotton,[14]; Rate 140 g/ha,5
same,Plant response rating Cotton,[14]; Rate 280 g/ha,10
same,Plant response rating Cotton,[14]; Rate 560 g/ha,30
same,Plant response rating Cotton,[14]; Rate 1120 g/ha,60
same,"Plant response rating, Velvetleaf",[15]; Rate 140 g/ha,0
same,"Plant response rating, Velvetleaf",[15]; Rate 560 g/ha,20
same,"Plant response rating, Velvetleaf",[15]; Rate 1120 g/ha,60
same,Plant response rating Johnsongrass,[16]; Rate 140 g/ha,10
same,Plant response rating Johnsongrass,[16]; Rate 280 g/ha,35
same,Plant response rating Johnsongrass,[16]; Rate 560 g/ha,40
same,Plant response rating Johnsongrass,[16]; Rate 1120 g/ha,85
